Measured values published in patent US6399590B2, “Phosphoglycolipid and methods for its use” (Corixa Corporation, priority 1998, dated 2002).

Test system: Adult mongrel dogs, left anterior descending coronary artery (LAD) occlusion/reperfusion
Test: Infarct size in the dog, 60 min LAD occlusion and 3 h reperfusion
Assay type: in vivo
Conditions: AG 30 mg/kg alone, 60 min before occlusion; mean ± SEM
Experimental: Adult mongrel dogs of either sex, weighing 19.0-30.0 kg were fasted overnight, anaesthetized with intravenous sodium barbital (200 mg/kg) and sodium pentobarbital (15 mg/kg), and ventilated with room air supplemented with 100% oxygen at an end expiratory pressure of 5-7 cm H2O to prevent atelectasis. Arterial blood pH PO2 and PCO2 were monitored at selected intervals by an automatic blood gas system and maintained within a normal physiological range (pH 7.35-7.45, PO2 10.6-16.0 kPa, PCO2 3,3-4.7 kPa) by adjusting the respiratory rate and oxygen flow and by an infusion of 1.5% sodium bicarbonate when necessary. Body temperature was maintained at 38±1° C. by using a heating pad.
A double pressure-transducer-tipped catheter was inserted into the aorta and left ventricle via the left carotid artery for measurements of aortic and left ventricular pressure. Left ventricular dP/dt was determined by electronic differentiation of the left ventricular pressure pulse.
A left thoracotomy was performed at the fifth intercostal space. The lung was retracted, the pericardium incised, and the heart suspended in a cradle. A 10-15 mm segment of the left anterior descending coronary artery (LAD) was dissected from surrounding tissue. […]
Regional myocardial blood flow was measured by the radioactive microsphere technique. […]

In the case of `N=C(N)NN` [AG, aminoguanidine, reference compound], the “IS/AAR(%) (infarct size / area at risk)” value is reported as 22.4 ± 2.8%.
